The source of these data is US9833426B2, “Agent for preventing deterioration in vascular endothelial function or improving vascular endothelial function” (KYOWA HAKKO BIO CO., LTD., priority 2012, dated 2017).

For assay [1], the system named is mice in which chronic rheumatoid arthritis was induced. Conditions: oral administration, mice with induced chronic rheumatoid arthritis; cited from earlier work.
Assay [2] has as its system normal rats and spontaneously hypertensive rats (SHR). Conditions: intravenous acute administration, transient; cited from earlier work.
The test system of assay [3] is normal human umbilical vein endothelial cells (HUVEC). Put plainly: Nitrite (NO2) concentration in HUVEC culture supernatant by HPLC (NO production). The format is cell-based. As to conditions: 48-hour culture. On the procedure:
A normal human umbilical vein endothelial cells (HUVEC) line available from Clonetics (SanDiego, Calif., USA) was used with EGM-2 Bullet Kit medium containing 2% FBS (Takara Bio Inc.). The cells were cultured at 37° C. in a 5% CO2 incubator, and used for experiments after 4 to 6 passages. Citrulline and serine, which were manufactured by Kyowa Hakko Bio, were used.
A cell suspension (0.45 mL) with the adjusted initial cell density to 1×10^5 cells/mL was inoculated in a 24-well plate (IWAKI). After 24-hour culture, the medium was replaced with a medium containing L-citrulline (final concentration 0.3 mM: low-dose citrulline group, or final concentration 3 mM: high-dose citrulline group), L-serine (final concentration 0.3 mM: serine group), or a mixture thereof (citrulline final concentration 0.3 mM and serine final concentration 0.3 mM: low-dose citrulline+serine group, or citrulline final concentration 3 mM and serine final concentration 0.3 mM: high-dose citrulline+serine group). In a control group, a medium to which only a solvent (PBS) was added was used. After 48-hour culture, the culture broth ([…]) was centrifuged at 12,000 rpm for 10 minutes, and the concentration of nitrite (NO2), which is a stable NO metabolite, in the culture supernatant was determined by HPLC (ENO-20, EICOM).

As for `N[C@@H](CO)C(=O)O` [serine, L-serine], the Arthritis score result in assay [1] is reported as “ameliorating the arthritis score”. Also, in assay [2], the Average blood pressure entry was “decreased” and the Peripheral vascular resistance result is reported as “decreased in a transient manner”.

As to `NC(=O)NCCC[C@H](N)C(=O)O` [citrulline, L-citrulline], the “Effect on NO production alone” value is given as “does not affect NO production alone” in assay [3] (citrulline 0.3 mM alone (low-dose citrulline group)) and “NO production was enhanced” in assay [3] (citrulline 3 mM alone (high-dose citrulline group)).
